Assay results as given in patent US20160038468A1 (priority 2013, published 2016).
≈ marks a conversion by molar mass, not a printed value. Like-named read-outs stand apart in the source and are kept apart here.

Experiments:
[1] = tested on: Prevotella bivia; experiment: Agar dilution MIC (CLSI), Prevotella bivia vaginal isolates; assay type: cell-based
[2] = tested on: Anaerococcus tetradius; experiment: Agar dilution MIC (CLSI), Anaerococcus tetradius vaginal isolates; assay type: cell-based; conditions: for MIC: read-out: Minimal Inhibitory Concentration (MIC); for Number of strains with indicated MIC: 21 samples
[3] = tested on: Finegoldia magna; experiment: Agar dilution MIC (CLSI), Finegoldia magna vaginal isolates; assay type: cell-based; conditions: for MIC: read-out: Minimal Inhibitory Concentration (MIC); for Number of strains with indicated MIC: 20 samples
[4] = tested on: vaginal infections; conditions: daily dosage less than 100 mg/day; cited from earlier work
[5] = tested on: Atopobium vaginae; experiment: Agar dilution MIC (CLSI), Atopobium vaginae vaginal isolates; assay type: cell-based; conditions: for Number of strains with indicated MIC: 62 samples
[6] = Anaerococcus tetradius, # tested 21
[7] = Fannyhessea vaginae, # tested 62

SMILES: CO[C@H]1/C=C/O[C@@]2(C)Oc3c(C)c(O)c4c(O)c(c5c(nc6cc(C)ccn65)c4c3C2=O)NC(=O)/C(C)=C\C=C\[C@H](C)[C@H](O)[C@@H](C)[C@@H](O)[C@@H](C)[C@H](OC(C)=O)[C@@H]1C [Rifaximin]
- MIC ([1]; Prevotella bivia, isolate 601458 16, read-out: Minimal Inhibitory Concentration (MIC)): 0.25 µg/mL (≈ 0.318 µM)
- MIC50 ([1]; Prevotella bivia, # tested 34): 0.25 µg/mL (≈ 0.318 µM)
- MIC90 ([1]; Prevotella bivia, # tested 34): 0.5 µg/mL (≈ 0.636 µM)
- Susceptible ([1]; number (%) of isolates, # tested 34): 34 (100) μg/ml
- MIC Range ([2]; # tested 21): 0.00375 to 0.125 µg/mL
- MIC ([2]; Anaerococcus tetradius, isolate 601098V T): 0.06 µg/mL (≈ 0.0763 µM)
- MIC ([2]; Anaerococcus tetradius, isolate 601103V 21): 0.06 µg/mL (≈ 0.0763 µM)
- MIC ([2]; Anaerococcus tetradius, isolate 601175V I): 0.125 µg/mL (≈ 0.159 µM)
- MIC ([2]; Anaerococcus tetradius, isolate 601202V 11): 0.06 µg/mL (≈ 0.0763 µM)
- MIC ([2]; Anaerococcus tetradius, isolate 601212V 14): 0.06 µg/mL (≈ 0.0763 µM)
- MIC ([2]; Anaerococcus tetradius, isolate 601221V 12): 0.00375 µg/mL (≈ 0.00477 µM)
- MIC ([2]; Anaerococcus tetradius, isolate 601222V 15): 0.06 µg/mL (≈ 0.0763 µM)
- MIC ([2]; Anaerococcus tetradius, isolate 601242V 17): 0.06 µg/mL (≈ 0.0763 µM)
- MIC ([2]; Anaerococcus tetradius, isolate 601256V 9): 0.06 µg/mL (≈ 0.0763 µM)
- MIC ([2]; Anaerococcus tetradius, isolate 601287V V): 0.06 µg/mL (≈ 0.0763 µM)
- MIC ([2]; Anaerococcus tetradius, isolate 601305V J): 0.015 µg/mL (≈ 0.0191 µM)
- MIC ([2]; Anaerococcus tetradius, isolate 601326V H): 0.06 µg/mL (≈ 0.0763 µM)
- MIC ([2]; Anaerococcus tetradius, isolate 601340V 25): 0.06 µg/mL (≈ 0.0763 µM)
- MIC ([2]; Anaerococcus tetradius, isolate 601342V N): 0.06 µg/mL (≈ 0.0763 µM)
- MIC ([2]; Anaerococcus tetradius, isolate 601368V 42): 0.06 µg/mL (≈ 0.0763 µM)
- MIC ([2]; Anaerococcus tetradius, isolate 601369V 12): 0.03 µg/mL (≈ 0.0382 µM)
- MIC ([2]; Anaerococcus tetradius, isolate 601379V 25): 0.06 µg/mL (≈ 0.0763 µM)
- MIC ([2]; Anaerococcus tetradius, isolate 601401V T): 0.06 µg/mL (≈ 0.0763 µM)
- MIC ([2]; Anaerococcus tetradius, isolate 601429V 15): 0.015 µg/mL (≈ 0.0191 µM)
- MIC ([2]; Anaerococcus tetradius, isolate 601450V 22): 0.06 µg/mL (≈ 0.0763 µM)
- MIC ([2]; Anaerococcus tetradius, isolate 602375V 22): 0.015 µg/mL (≈ 0.0191 µM)
- MIC50 [2, 6]: 0.06 µg/mL (≈ 0.0763 µM)
- MIC90 [2, 6]: 0.06 µg/mL (≈ 0.0763 µM)
- Number of strains with indicated MIC ([2]; MIC 0.00375 μg/ml): 1
- Number of strains with indicated MIC ([2]; MIC 0.015 μg/ml): 3
- Number of strains with indicated MIC ([2]; MIC 0.03 μg/ml): 1
- Number of strains with indicated MIC ([2]; MIC 0.06 μg/ml): 15
- Number of strains with indicated MIC ([2]; MIC […]): 1
- MIC Range ([3]; # tested 20): 0.125 to 16 µg/mL
- MIC ([3]; Finegoldia magna, isolate 301303V D): 4 µg/mL (≈ 5.09 µM)
- MIC ([3]; Finegoldia magna, isolate 601205V 39): 4 µg/mL (≈ 5.09 µM)
- MIC ([3]; Finegoldia magna, isolate 601214V F): 8 µg/mL (≈ 10.2 µM)
- MIC ([3]; Finegoldia magna, isolate 601275V c): 0.125 µg/mL (≈ 0.159 µM)
- MIC ([3]; Finegoldia magna, isolate 601276V 23): 4 µg/mL (≈ 5.09 µM)
- MIC ([3]; Finegoldia magna, isolate 601283V 14): 4 µg/mL (≈ 5.09 µM)
- MIC ([3]; Finegoldia magna, isolate 601293V 27): 4 µg/mL (≈ 5.09 µM)
- MIC ([3]; Finegoldia magna, isolate 601295V 25): 4 µg/mL (≈ 5.09 µM)
- MIC ([3]; Finegoldia magna, isolate 601298V 30): 4 µg/mL (≈ 5.09 µM)
- MIC ([3]; Finegoldia magna, isolate 601308V 24): 2 µg/mL (≈ 2.54 µM)
- MIC ([3]; Finegoldia magna, isolate 601315V 17): 8 µg/mL (≈ 10.2 µM)
- MIC ([3]; Finegoldia magna, isolate 601315V 17A): 8 µg/mL (≈ 10.2 µM)
- MIC ([3]; Finegoldia magna, isolate 601320V 24): 16 µg/mL (≈ 20.4 µM)
- MIC ([3]; Finegoldia magna, isolate 601323V K): 4 µg/mL (≈ 5.09 µM)
- MIC ([3]; Finegoldia magna, isolate 601330V c): 16 µg/mL (≈ 20.4 µM)
- MIC ([3]; Finegoldia magna, isolate 601335V c1): 4 µg/mL (≈ 5.09 µM)
- MIC ([3]; Finegoldia magna, isolate 601340V 27): 8 µg/mL (≈ 10.2 µM)
- MIC ([3]; Finegoldia magna, isolate 601359V c): 2 µg/mL (≈ 2.54 µM)
- MIC ([3]; Finegoldia magna, isolate 601363V 6): 0.25 µg/mL (≈ 0.318 µM)
- MIC ([3]; Finegoldia magna, isolate 601367V c): 16 µg/mL (≈ 20.4 µM)
- MIC50 ([3]; Finegoldia magna, # tested 20): 4 µg/mL (≈ 5.09 µM)
- MIC90 ([3]; Finegoldia magna, # tested 20): 16 µg/mL (≈ 20.4 µM)
- Number of strains with indicated MIC ([3]; MIC 8 μg/ml): 4
- Number of strains with indicated MIC ([3]; MIC 16 μg/ml): 3
- Number of strains with indicated MIC ([3]; MIC […]): 1
- Susceptible ([3]; number (%) of isolates, # tested 20): 20 (100) μg/ml
- efficacy in the treatment of vaginal infections [4]: efficacious
- number of Atopobium vaginae strains against which the agent had activity [5]: 62 strains
- MIC Range ([5]; # tested 62): 0.00375 to 0.25 µg/mL
- MIC50 [5, 7]: 0.00375 µg/mL (≈ 0.00477 µM)
- MIC90 [5, 7]: 0.015 µg/mL (≈ 0.0191 µM)
- Number of strains with indicated MIC ([5]; MIC 0.00375 μg/ml): 43
- Number of strains with indicated MIC ([5]; MIC 0.0075 μg/ml): 10
- Number of strains with indicated MIC ([5]; MIC 0.015 μg/ml): 5
- Number of strains with indicated MIC ([5]; MIC 0.06 μg/ml): 1
